Laboratory results from the supplement of paper PMC10307832.

Experiments:
Assay in all cases: relative viability (nuclei count vs DMSO), 5 days (fraction); higher = more cells survive
[1] = tested on: EPLC-272H
Procedure, shortened: (§1)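 Five library-drug doses in √10 steps were combined with a fixed anchor-drug dose, or a single drug was given alone, by pin tool to lung cancer cell lines in 1536-well plates the day after seeding. Nuclei were stained and counted after 5 days. Relative viability is the nuclei count in treated wells over that in vehicle wells, taken as the median of duplicate plates.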

[2] = tested on: H3255
Procedure, shortened: as §1

[3] = tested on: HARA
Procedure, shortened: as §1

[4] = tested on: LC-2-ad
Procedure, shortened: as §1

[5] = tested on: LOU-NH91
Procedure, shortened: as §1

[6] = tested on: NCI-H1650
Procedure, shortened: as §1

[7] = tested on: NCI-H1651
Procedure, shortened: as §1

[8] = tested on: NCI-H1975
Procedure, shortened: as §1

[9] = tested on: NCI-H2009
Procedure, shortened: as §1

[10] = tested on: NCI-H2023
Procedure, shortened: as §1

[11] = tested on: NCI-H2085
Procedure, shortened: as §1

[12] = tested on: NCI-H2087
Procedure, shortened: as §1

[13] = tested on: NCI-H2170
Procedure, shortened: as §1

[14] = tested on: NCI-H2228
Procedure, shortened: as §1

[15] = tested on: NCI-H23
Procedure, shortened: as §1

[16] = tested on: NCI-H441
Procedure, shortened: as §1

[17] = tested on: NCI-H650
Procedure, shortened: as §1

[18] = tested on: NCI-H727
Procedure, shortened: as §1

[19] = tested on: NCI-H838
Procedure, shortened: as §1

[20] = tested on: PC-3 [JPC-3]
Procedure, shortened: as §1

[21] = tested on: SW 1573
Procedure, shortened: as §1

[22] = tested on: SW 900
Procedure, shortened: as §1

[23] = tested on: UMC-11
Procedure, shortened: as §1

Cc1csc(=NC2CCCCC2)n1/N=C/c1ccc(O)c(O)c1O [MIM1] + CC(=O)c1c(C)c2cnc(Nc3ccc(N4CCNCC4)cn3)nc2n(C2CCCC2)c1=O [Palbociclib] (partner 0.5 µM)
relative viability ([1]; first compound 0.2 µM): 0.328 | relative viability ([1]; first compound 0.6325 µM): 0.332 | relative viability ([1]; first compound 2 µM): 0.302 | relative viability ([1]; first compound 6.325 µM): 0.279 | relative viability ([1]; first compound 20 µM): 0.149 | relative viability ([2]; first compound 0.2 µM): 0.308 | relative viability ([2]; first compound 0.6325 µM): 0.326 | relative viability ([2]; first compound 2 µM): 0.31 | relative viability ([2]; first compound 6.325 µM): 0.326 | relative viability ([2]; first compound 20 µM): 0.243 | relative viability ([3]; first compound 0.2 µM): 0.253 | relative viability ([3]; first compound 0.6325 µM): 0.302 | relative viability ([3]; first compound 2 µM): 0.281 | relative viability ([3]; first compound 6.325 µM): 0.251 | relative viability ([3]; first compound 20 µM): 0.169 | relative viability ([4]; first compound 0.2 µM): 0.463 | relative viability ([4]; first compound 0.6325 µM): 0.471 | relative viability ([4]; first compound 2 µM): 0.502 | relative viability ([4]; first compound 6.325 µM): 0.289 | relative viability ([4]; first compound 20 µM): 0.182 | relative viability ([5]; first compound 0.2 µM): 0.524 | relative viability ([5]; first compound 0.6325 µM): 0.569 | relative viability ([5]; first compound 2 µM): 0.516 | relative viability ([5]; first compound 6.325 µM): 0.499 | relative viability ([5]; first compound 20 µM): 0.36 | relative viability ([6]; first compound 0.2 µM): 0.446 | relative viability ([6]; first compound 0.6325 µM): 0.316 | relative viability ([6]; first compound 2 µM): 0.256 | relative viability ([6]; first compound 6.325 µM): 0.137 | relative viability ([6]; first compound 20 µM): 0.136 | relative viability ([7]; first compound 0.2 µM): 0.542 | relative viability ([7]; first compound 0.6325 µM): 0.531 | relative viability ([7]; first compound 2 µM): 0.521 | relative viability ([7]; first compound 6.325 µM): 0.416 | relative viability ([7]; first compound 20 µM): 0.541 | relative viability ([8]; first compound 0.2 µM): 0.529 | relative viability ([8]; first compound 0.6325 µM): 0.67 | relative viability ([8]; first compound 2 µM): 0.519 | relative viability ([8]; first compound 6.325 µM): 0.256 | relative viability ([8]; first compound 20 µM): 0.169 | relative viability ([9]; first compound 0.2 µM): 0.288 | relative viability ([9]; first compound 0.6325 µM): 0.266 | relative viability ([9]; first compound 2 µM): 0.331 | relative viability ([9]; first compound 6.325 µM): 0.167 | relative viability ([9]; first compound 20 µM): 0.122 | relative viability ([10]; first compound 0.2 µM): 0.393 | relative viability ([10]; first compound 0.6325 µM): 0.387 | relative viability ([10]; first compound 2 µM): 0.391 | relative viability ([10]; first compound 6.325 µM): 0.194 | relative viability ([10]; first compound 20 µM): 0.0614 | relative viability ([11]; first compound 0.2 µM): 0.476 | relative viability ([11]; first compound 0.6325 µM): 0.466 | relative viability ([11]; first compound 2 µM): 0.461 | relative viability ([11]; first compound 6.325 µM): 0.482 | relative viability ([11]; first compound 20 µM): 0.537 | relative viability ([12]; first compound 0.2 µM): 0.228 | relative viability ([12]; first compound 0.6325 µM): 0.269 | relative viability ([12]; first compound 2 µM): 0.24 | relative viability ([12]; first compound 6.325 µM): 0.226 | relative viability ([12]; first compound 20 µM): 0.206 | relative viability ([13]; first compound 0.2 µM): 0.38 | relative viability ([13]; first compound 0.6325 µM): 0.398 | relative viability ([13]; first compound 2 µM): 0.373 | relative viability ([13]; first compound 6.325 µM): 0.227 | relative viability ([13]; first compound 20 µM): 0.142 | relative viability ([14]; first compound 0.2 µM): 0.835 | relative viability ([14]; first compound 0.6325 µM): 0.646 | relative viability ([14]; first compound 2 µM): 0.899 | relative viability ([14]; first compound 6.325 µM): 0.177 | relative viability ([14]; first compound 20 µM): 0.133 | relative viability ([15]; first compound 0.2 µM): 0.518 | relative viability ([15]; first compound 0.6325 µM): 0.51 | relative viability ([15]; first compound 2 µM): 0.413 | relative viability ([15]; first compound 6.325 µM): 0.19 | relative viability ([15]; first compound 20 µM): 0.194 | relative viability ([16]; first compound 0.2 µM): 0.273 | relative viability ([16]; first compound 0.6325 µM): 0.266 | relative viability ([16]; first compound 2 µM): 0.205 | relative viability ([16]; first compound 6.325 µM): 0.186 | relative viability ([16]; first compound 20 µM): 0.114 | relative viability ([17]; first compound 0.2 µM): 0.372 | relative viability ([17]; first compound 0.6325 µM): 0.359 | relative viability ([17]; first compound 2 µM): 0.317 | relative viability ([17]; first compound 6.325 µM): 0.366 | relative viability ([17]; first compound 20 µM): 0.159 | relative viability ([18]; first compound 0.2 µM): 0.634 | relative viability ([18]; first compound 0.6325 µM): 0.686 | relative viability ([18]; first compound 2 µM): 0.605 | relative viability ([18]; first compound 6.325 µM): 0.546 | relative viability ([18]; first compound 20 µM): 0.472 | relative viability ([19]; first compound 0.2 µM): 0.202 | relative viability ([19]; first compound 0.6325 µM): 0.26 | relative viability ([19]; first compound 2 µM): 0.216 | relative viability ([19]; first compound 6.325 µM): 0.169 | relative viability ([19]; first compound 20 µM): 0.168 | relative viability ([20]; first compound 0.2 µM): 0.544 | relative viability ([20]; first compound 0.6325 µM): 0.538 | relative viability ([20]; first compound 2 µM): 0.493 | relative viability ([20]; first compound 6.325 µM): 0.446 | relative viability ([20]; first compound 20 µM): 0.343 | relative viability ([21]; first compound 0.2 µM): 0.412 | relative viability ([21]; first compound 0.6325 µM): 0.501 | relative viability ([21]; first compound 2 µM): 0.365 | relative viability ([21]; first compound 6.325 µM): 0.325 | relative viability ([21]; first compound 20 µM): 0.148 | relative viability ([22]; first compound 0.2 µM): 0.632 | relative viability ([22]; first compound 0.6325 µM): 0.581 | relative viability ([22]; first compound 2 µM): 0.507 | relative viability ([22]; first compound 6.325 µM): 0.211 | relative viability ([22]; first compound 20 µM): 0.171 | relative viability ([23]; first compound 0.2 µM): 0.368 | relative viability ([23]; first compound 0.6325 µM): 0.318 | relative viability ([23]; first compound 2 µM): 0.33 | relative viability ([23]; first compound 6.325 µM): 0.362 | relative viability ([23]; first compound 20 µM): 0.338
